The values below come from patent US10526297B2, “Benzylideneguanidine derivatives and therapeutic use for the treatment of protein misfolding diseases” (United Kingdom Research and Innovation, priority 2013, dated 2020).

Like-named read-outs stand apart in the source and are kept apart here.

Data set [1] has as its system PPP1R15A or PPP1R15B. In words: Selectivity assessment inferred from the tests. In kind it is cell-based. The settings on record: inferred from translation inhibition in stressed/non-stressed cells.
The subject of data set [2] is HeLa cells. In words: Assessment of Translation Rates in Stressed Cells (Test 3). Particulars: tunicamycin 2.5 μg/ml together with compounds 50 μM, 35S-methionine labelling.
Data set [3] relates to HeLa cells. In words: Assessment of Translation Rates in Unstressed Cells (Test 2). In kind it is cell-based. Particulars: compounds 50 μM, 0.5-7.5 h, 35S-methionine labelling. As to the method:
Following labelling, cells were washed with ice-cold PBS and lysed in 75 μl Laemmli Buffer. […] Gels were then stained with Coomassie Brilliant Blue R-250 and analyzed by phosphorimaging.

Data set [4] relates to HeLa cells. The data set can be described thus: Cytoprotection from ER Stress (Test 1). The settings on record: 2.5 μg/ml tunicamycin 6 h, inhibitors 0.2-5 μM, WST-8 viability 48 h after tunicamycin, relative to control. In general terms: Formazan colour is commonly taken as a measure of viable cells.
Data set [5] has as its system retinal pigment epithelium (RPE). The settings on record: rat AMD model; cited from earlier work.
In data set [6] the target is PPP1R15A (GADD34) (Homo sapiens, UniProt O75807). Particulars: cited from earlier work.
Data set [7] deals with HeLa cells. The settings on record: tunicamycin, cited from earlier work.
Data set [8] concerns non-stressed cells. The settings on record: cited from earlier work.
In data set [9] the test system is mutant Huntingtin. Particulars: cell-based assays, cited from earlier work.
Data set [10] concerns prion infected mice. The settings on record: mouse, in vivo; cited from earlier work.
The test system of data set [11] is choroidal blood flow. Particulars: in vivo; cited from earlier work.
The target of data set [12] is T1, PPP1R15B (CReP) (Homo sapiens, UniProt Q5SWA1).
T1 sequence (Q5SWA1 1-713): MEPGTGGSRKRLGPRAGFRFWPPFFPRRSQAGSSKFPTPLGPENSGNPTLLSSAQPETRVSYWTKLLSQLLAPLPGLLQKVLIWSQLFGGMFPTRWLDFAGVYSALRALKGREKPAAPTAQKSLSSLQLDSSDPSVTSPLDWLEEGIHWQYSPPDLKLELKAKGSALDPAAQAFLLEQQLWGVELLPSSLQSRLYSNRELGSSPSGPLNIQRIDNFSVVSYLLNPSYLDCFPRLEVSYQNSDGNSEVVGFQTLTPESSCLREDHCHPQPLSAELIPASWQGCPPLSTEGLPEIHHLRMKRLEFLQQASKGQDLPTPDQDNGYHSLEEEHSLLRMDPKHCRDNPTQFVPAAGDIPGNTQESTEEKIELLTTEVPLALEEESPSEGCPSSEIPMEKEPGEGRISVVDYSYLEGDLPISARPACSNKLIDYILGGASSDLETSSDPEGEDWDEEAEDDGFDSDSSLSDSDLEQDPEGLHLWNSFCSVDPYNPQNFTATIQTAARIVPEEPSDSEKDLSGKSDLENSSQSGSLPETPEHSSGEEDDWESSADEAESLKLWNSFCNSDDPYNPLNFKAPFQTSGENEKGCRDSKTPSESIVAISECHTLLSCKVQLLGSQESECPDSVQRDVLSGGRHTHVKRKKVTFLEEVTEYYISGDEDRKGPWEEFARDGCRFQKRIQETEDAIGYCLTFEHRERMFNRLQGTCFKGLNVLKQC
Particulars: constitutive PPP1R15B (CReP); cited from earlier work.

For data set [13], the system named is Min6 and INS-1 pancreatic beta-cells. Particulars: expression in the ER of Min6 and INS-1 cells; cited from earlier work.
Data set [14] relates to choroidal neovascularization (CNV). The settings on record: laser-induced rat AMD model; cited from earlier work.
Data set [15] has as its system P0S63del mice. Particulars: cited from earlier work.
The test system of data set [16] is G93A-SOD1 transgenic mouse. Particulars: cited from earlier work.
For data set [17], the system named is animal models of alpha-synucleinopathy. The settings on record: two animal models of alpha-synucleinopathy; cited from earlier work.

PPP1R15A (GADD34), sequence (O75807 whole entry, species assumed): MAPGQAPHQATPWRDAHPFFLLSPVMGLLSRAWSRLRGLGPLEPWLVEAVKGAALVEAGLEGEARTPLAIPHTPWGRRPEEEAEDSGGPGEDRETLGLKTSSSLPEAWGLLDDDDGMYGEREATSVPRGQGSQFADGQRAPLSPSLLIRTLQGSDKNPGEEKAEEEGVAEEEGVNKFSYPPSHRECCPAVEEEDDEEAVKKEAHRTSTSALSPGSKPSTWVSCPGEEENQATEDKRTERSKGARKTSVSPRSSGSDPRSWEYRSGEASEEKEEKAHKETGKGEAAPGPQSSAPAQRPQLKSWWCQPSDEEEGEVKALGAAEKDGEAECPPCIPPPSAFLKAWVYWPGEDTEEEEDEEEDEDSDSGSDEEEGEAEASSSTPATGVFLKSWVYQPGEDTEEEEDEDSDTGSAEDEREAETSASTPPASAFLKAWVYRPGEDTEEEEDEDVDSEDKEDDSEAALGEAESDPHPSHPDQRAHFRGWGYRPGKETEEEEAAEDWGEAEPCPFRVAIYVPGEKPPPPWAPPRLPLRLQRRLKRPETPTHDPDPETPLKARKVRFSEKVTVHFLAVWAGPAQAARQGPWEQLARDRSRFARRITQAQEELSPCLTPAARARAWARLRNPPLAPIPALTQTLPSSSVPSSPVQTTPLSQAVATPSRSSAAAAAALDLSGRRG

In the case of `N=C(N)N/N=C/c1ccccc1Br` [Example 2, 1-[(E)-[(2-bromophenyl)methylidene]amino]-guanidine], in data set [1], the “Selectivity assessment Selectivity towards PPP1R15A or PPP1R15B” value was “inhibit both PPP1R15A and B”. Moreover, the “Test 3 Translation attenuation after Tm” value in data set [2] is reported as “prolonged”. Also, in data set [3], the “Test 2 Translation inhibition in non-stressed cells” value is “YES”. Further, the “Test 1 Survival following ER stress (increase %)” value in [4] is recorded as 40%.

`N=C(N)N/N=C/c1ccccc1F` [Example 3, 1-[(E)-[(2-fluorophenyl)methylidene]amino]-guanidine]: the “Test 3 Translation attenuation after Tm” value in data set [2] is “prolonded”. The “Test 2 Translation inhibition in non-stressed cells” value in [3] was “YES”. In data set [4], the “Test 1 Survival following ER stress (increase %)” value came out at 80%.

As for `Cc1ccccc1/C=N/NC(=N)N` [Example 4, 1-[(E)-[(2-methylphenyl)methylidene]amino]guanidine], the “Selectivity assessment Selectivity towards PPP1R15A or PPP1R15B” value in data set [1] was “inhibit both PPP1R15A and B”. The “Test 3 Translation attenuation after Tm” value in [2] is on record as “prolonged”. For the same compound, the “Test 2 Translation inhibition in non-stressed cells” value in data set [3] is given as “YES”. The “Test 1 Survival following ER stress (increase %)” value in data set [4] came to 100%.

For `Cc1nnc(N/N=C/c2ccccc2Cl)[nH]c1=O` [Example 6, 2-chlorobenzaldehyde (6-methyl-5-oxo-4,5-dihydro-1,2,4-triazin-3-yl)hydrazone], the “Selectivity assessment Selectivity towards PPP1R15A or PPP1R15B” value in [1] is “confirmed selective inhibitors of PPP1R15A”. For the same compound, in data set [2], the “Test 3 Translation attenuation after Tm” value is reported as “prolonged”. Moreover, the “Test 1 Survival following ER stress (increase %)” value in [4] stood at 120%.

For the compound `N=C(N)N/N=C/c1ccc(F)cc1Cl` [Example 7, 1-[(E)-[(2-chloro-4-fluorophenyl)methylidene]amino]guanidine], in [1], the “Selectivity assessment Selectivity towards PPP1R15A or PPP1R15B” value is “inhibit both PPP1R15A and B”. For the same compound, the “Test 3 Translation attenuation after Tm” value in data set [2] was “prolonged”. The “Test 2 Translation inhibition in non-stressed cells” value in [3] was “YES”. Also, the “Test 1 Survival following ER stress (increase %)” value in [4] stood at 160%.

With `CC(=O)NC(=N)N/N=C/c1ccccc1Cl` [Example 8, N-{N-[(E)-[(2-chlorophenyl)methylidene]amino]carbamimidoyl}acetamide], the “Selectivity assessment Selectivity towards PPP1R15A or PPP1R15B” value in data set [1] was “inhibit both PPP1R15A and B”. For the same compound, the “Test 3 Translation attenuation after Tm” value in [2] was “prolonged”. Further, the “Test 2 Translation inhibition in non-stressed cells” value in data set [3] is listed as “YES”. In addition, in data set [4], the “Test 1 Survival following ER stress (increase %)” value is reported as 100%.

Take `COC(=O)NC(=N)N/N=C/c1ccccc1Cl` [Example 9, methyl N-{N-[(E)-[(2-chlorophenyl)methylidene]amino]carbamimidoyl}carbamate]: the “Test 1 Survival following ER stress (increase %)” value in [4] was found to be 20%.

Consider `N=C(N)N/N=C/c1ccncc1Cl` [Example 13, 1-[(E)-[(3-chloropyridin-4-yl)methylidene]amino]guanidine], for which, in data set [4], the “Test 1 Survival following ER stress (increase %)” value is listed as 60-80%.

Regarding `N=C(N)N/N=C/c1c(F)cccc1Cl` [Example 15, 1-[(E)-[(2-chloro-6-fluorophenyl)methylidene]amino]guanidine], the “Test 3 Translation attenuation after Tm” value in data set [2] was “prolonged”. Moreover, in [4], the “Test 1 Survival following ER stress (increase %)” value is reported as 160%.

As to `N=C(N)N/N=C/c1c(F)cncc1Cl` [Example 16, 1-[(E)-[(3-chloro-5-fluoropyridin-4-yl)methylidene]amino]guanidine], in data set [3], the “Test 2 Translation inhibition in non-stressed cells” value is “YES”. For the same compound, the “Test 1 Survival following ER stress (increase %)” value in data set [4] was 140%.

On to `NC(N)=N/N=C/c1c(Cl)cccc1Cl` [Guanabenz, 2-(2,6-dichlorobenzylidene)hydrazinecarboximidamide], for which the “protection of RPE from NalO3-induced degeneration” value in data set [5] is “significantly protected”. The “binding to PPP1R15A” value in data set [6] was “binding to a regulatory subunit of protein phosphatase 1, PPP1R15A (GADD34)”. Also, the EC50 in data set [7] (read-out: median effective concentration (cells surviving ER stress)) was roughly 0.4 µM. Also, in data set [7], the “protection of cells from cytotoxic ER stress (in words)” value (“protection of cells” below) is on record as “doubled the number of cells surviving ER stress”. The “translation inhibition in non-stressed cells” value in data set [8] is reported as “does not inhibit translation in non-stressed cells”. In addition, the mutant huntingtin accumulation result in data set [9] is listed as “attenuating accumulation of mutant Huntingtin”; in data set [9] (listed as guanabenz) it was “reduces mutant huntingtin accumulation in cells”. In addition, the “symptoms of prion infected mice” value in [10] was “reduces the symptoms”. For the same compound, the choroidal blood flow entry in [11] is given as “increased choroidal blood flow markedly”. Further, the “binding to PPP1R15B” value in data set [12] is given as “does not bind”. Further, the “protection against lethal effects of Insulin Akita mutant expression” value in [13] was “protection against the lethal effects”. In addition, the “development of choroidal neovascularization (CNV)” value in data set [14] was “inhibited the development of choroidal neovascularization (CNV)”.

Turning to `O=C(/C=C/c1ccccc1)NC(NC(=S)Nc1cccc2cccnc12)C(Cl)(Cl)Cl` (stereo not shown) [Salubrinal], in data set [15] (P0S63del mice), the “motor capacity in rotarod analysis” value is “regained almost normal motor capacity”. Also, in [15] (mouse, in vivo), the toxicity result is “toxic”. Besides, the life span result in data set [16] is on record as “extends the life span”. The disease manifestations result in [17] is listed as “significantly attenuates disease manifestations”.

As to `Clc1cccc(Cl)c1N=C1NCCN1` [clonidine], the “protection of cells” value in [7] is reported as “Neither the α2-adrenergic receptor agonist clonidine, nor the α2-adrenergic receptor antagonist efaroxan protected cells”.

Regarding `CCC1(C2=NCCN2)Cc2ccccc2O1` (stereo not shown) [efaroxan], in [7], the “protection of cells” value is listed as “Neither the α2-adrenergic receptor agonist clonidine, nor the α2-adrenergic receptor antagonist efaroxan protected cells”.
